From PubChem BioAssay AID1259408 (Genetic Toxicology Data Bank (GENE-TOX), 2018)
The source made the active and inactive calls. No rule for the calls is given here.

Test system: GENE-TOX genotoxicity assays, various organisms and cells
Experiment: GENE-TOX mutagenicity studies
Conditions: for call: Assay Type: In vivo carcinogenicity studies
[1] = Species/Cell Type: Drosophila melanogaster, Assay Type: Sex-linked recessive lethal gene mutation, Assay Code: SRL+, Evaluation Type: Evaluation A (Pre-1980)
[2] = Species/Cell Type: Saccharomyces cerevisiae, Assay Type: Mitotic recombination or gene conversion, Assay Code: YEC+, Evaluation Type: Evaluation A (Pre-1980)
[3] = Species/Cell Type: Salmonella typhimurium (one or more of the five standard strains: TA98, TA100, TA1535, TA1537, and TA1538), Assay Type: Histidine reverse gene mutation, Ames assay, Assay Code: SALT, Evaluation Type: Evaluation A (Pre-1980)
[4] = Species/Cell Type: Bacillus subtilis (H17 vs M45), Assay Type: Rec-assay, spot test, DNA effects (bacterial DNA repair), Assay Code: REW+, Evaluation Type: Evaluation A (Pre-1980)
[5] = Species/Cell Type: Mouse, Sex: Male, Assay Type: Sperm morphology, Assay Code: SPI+, Evaluation Type: Evaluation A (Pre-1980)
[6] = Species/Cell Type: Nonhuman, Assay Code: CCG+, Evaluation Type: Evaluation A (Pre-1980)
[7] = Species/Cell Type: Salmonella typhimurium (one or more of the five standard strains: TA98, TA100, TA1535, TA1537, and TA1538), Assay Type: Histidine reverse gene mutation, Ames assay, Assay Code: SAL+, Evaluation Type: Evaluation A (Pre-1980)
[8] = Species/Cell Type: Nonhuman, Assay Code: CCGT, Evaluation Type: Evaluation A (Pre-1980)
[9] = Species/Cell Type: Drosophila melanogaster, Assay Type: Sex-linked recessive lethal gene mutation, Assay Code: SRL-, Evaluation Type: Evaluation A (Pre-1980)
[10] = Species/Cell Type: Fischer rat embryo (RLV/1706) cells, Assay Type: Cell transformation, viral enhanced, Assay Code: CTR+, Evaluation Type: Evaluation A (Pre-1980)
[11] = Species/Cell Type: Saccharomyces cerevisiae, Assay Type: Mitotic recombination or gene conversion, Assay Code: YEH+, Evaluation Type: Evaluation A (Pre-1980)
[12] = Species/Cell Type: Mouse, Sex: Male, Assay Type: Sperm morphology, Assay Code: SPI-, Evaluation Type: Evaluation A (Pre-1980)
[13] = Species/Cell Type: Salmonella typhimurium (one or more of the five standard strains: TA98, TA100, TA1535, TA1537, and TA1538), Assay Type: Histidine reverse gene mutation, Ames assay, Assay Code: SAL+*, Activation: With metabolic activation, Evaluation Type: Evaluation A (Pre-1980)

In the case of `CN(C)N=Nc1ccc(Br)cc1`, the mutagenic call [1] was “active; positive”, the mutagenic call (Species/Cell Type: Mammalian polychromatic erythrocytes, Assay Type: Micronucleus test, chromosome aberrations, Assay Code: MNT+, Evaluation Type: Evaluation A (Pre-1980)) was “active; positive” and the mutagenic call [2] was “active; positive”.
In the case of `C1CCNCC1`, the mutagenic call (Species/Cell Type: Salmonella typhimurium, Assay Type: Forward and reverse gene mutation, host-mediated assay, Assay Code: HMA-, Evaluation Type: Evaluation A (Pre-1980)) was “inactive; negative”.
`O[C@@H]1C=Cc2ccc3cc4ccccc4cc3c2[C@H]1O` was tested, and the mutagenic call (Species/Cell Type: Chinese hamster lung (V79) cells, Assay Type: Forward gene mutation at the HPRT or ouabain locus, Assay Code: V79-*, Activation: With metabolic activation, Evaluation Type: Evaluation A (Pre-1980)) was “inactive; negative”, the mutagenic call (Species/Cell Type: Nonhuman, Assay Type: Sister-chromatid exchange (SCE) in vitro, Assay Code: SC2+D, Dose Response: With dose response, Evaluation Type: Evaluation B (Post-1980)) was “active; positive” and the mutagenic call [3] was “no conclusion”.
With `COc1ccc(-c2oc3c(OC)c(OC)c(OC)cc3c(=O)c2OC)cc1` the mutagenic call [4] was “active; positive”.
`O=CNNc1nc(-c2ccc([N+](=O)[O-])o2)cs1` was tested, and the mutagenic call [4] was “active; positive”, the mutagenic call (Species/Cell Type: Escherichia coli WP2, Assay Type: Tryptophan reverse gene mutation, Assay Code: WP2+, Evaluation Type: Evaluation A (Pre-1980)) was “active; positive” and the mutagenic call (Species/Cell Type: Escherichia coli WP2 UVRA, Assay Type: Tryptophan reverse gene mutation, Assay Code: WPU+, Evaluation Type: Evaluation A (Pre-1980)) was “active; positive”. The mutagenic call [5] was “active; positive”, the call [6] was “active; positive” and the mutagenic call [7] was “active; positive”.
For `C1=C[C@H]2O[C@H]2c2c1cc1ccc3cccc4ccc2c1c34`, the mutagenic call (Species/Cell Type: Chinese hamster lung (V79) cells, Assay Type: Forward gene mutation at the HPRT or ouabain locus, Assay Code: V79-, Evaluation Type: Evaluation A (Pre-1980)) was “inactive; negative”, the call [8] was “no conclusion” and the mutagenic call [7] was “active; positive”.
In the case of `CCCc1cc(=O)[nH]c(=S)[nH]1`, the call [6] was “active; positive”.
In the case of `CC[N+](C)(CC)CCC[n+]1c(-c2ccccc2)c2cc(N)ccc2c2ccc(N)cc21`, the mutagenic call (Species/Cell Type: Mammalian cell culture, nonhuman, Assay Type: Micronucleus test in vitro, chromosome aberrations, Assay Code: MN&+, Evaluation Type: Evaluation A (Pre-1980)) was “active; positive”.
In the case of `CC(=O)Nc1nc(-c2csc(NC(C)=O)n2)cs1`, the mutagenic call [3] was “no conclusion”.
With `COc1cc2c(c3oc(=O)c4c(c13)CCC4=O)[C@@H]1C[C@H](O)O[C@@H]1O2` the mutagenic call [3] was “no conclusion”.
`CN(N=O)C(=O)NC(N)=O` was tested, and the mutagenic call (Species/Cell Type: Arabidopsis species, Assay Type: Gene mutation, Assay Code: ARM+D, Dose Response: With dose response, Evaluation Type: Evaluation A (Pre-1980)) was “active; positive”.
In the case of `ClC=C(Cl)Cl`, the mutagenic call [9] was “inactive; negative”, the mutagenic call [10] was “active; positive” and the mutagenic call (Species/Cell Type: Mammalian polychromatic erythrocytes, Assay Type: Micronucleus test, chromosome aberrations, Assay Code: MNT+, Evaluation Type: Evaluation B (Post-1980)) was “active; positive”. The mutagenic call (Species/Cell Type: Mouse, Sex: Female, Assay Type: Spot test, gene mutation, Assay Code: MST+, Evaluation Type: Evaluation A (Pre-1980)) was “active; positive”, the mutagenic call [5] was “active; positive” and the call (Species/Cell Type: Nonhuman, Assay Code: CCG+L, Evaluation Type: Evaluation A (Pre-1980)) was “active; positive”. The mutagenic call (Species/Cell Type: Nonhuman, Assay Type: Sister-chromatid exchange (SCE) in vitro, Assay Code: SC2T, Evaluation Type: Evaluation B (Post-1980)) was “no conclusion”, the mutagenic call (Species/Cell Type: Saccharomyces cerevisiae, Assay Type: Forward and reverse gene mutation, mitotic recombination and gene conversion, host-mediated assay, Assay Code: HME+, Evaluation Type: Evaluation A (Pre-1980)) was “active; positive” and the mutagenic call [2] was “active; positive”. For the same molecule, the mutagenic call [11] was “active; positive”, the mutagenic call (Species/Cell Type: Saccharomyces cerevisiae, Assay Type: Reverse gene mutation, Assay Code: YER+, Evaluation Type: Evaluation A (Pre-1980)) was “active; positive” and the mutagenic call [3] was “no conclusion”. For the same molecule, the mutagenic call (Species/Cell Type: Tradescantia species, Assay Type: Gene mutation, Assay Code: TRM+, Evaluation Type: Evaluation A (Pre-1980)) was “active; positive”.
In the case of `CC(=O)OC/N=[N+](/C)[O-]`, the mutagenic call (Species/Cell Type: Chinese hamster lung (V79) cells, Assay Type: Forward gene mutation at the HPRT or ouabain locus, Assay Code: V79+, Evaluation Type: Evaluation A (Pre-1980)) was “active; positive”, the mutagenic call [1] was “active; positive” and the mutagenic call (Species/Cell Type: Escherichia coli polA (W3119 vs P3478), Assay Type: Rec-assay, DNA effects (bacterial DNA repair), Assay Code: RE1+, Evaluation Type: Evaluation A (Pre-1980)) was “active; positive”. For the same molecule, the mutagenic call [10] was “active; positive”, the mutagenic call (Species/Cell Type: Mouse (BALB/c-3T3) cells, Assay Type: Cell transformation, Assay Code: CTB+, Evaluation Type: Evaluation A (Pre-1980)) was “active; positive” and the mutagenic call [12] was “inactive; negative”. For the same molecule, the call [6] was “active; positive”, the mutagenic call (Species/Cell Type: Nonhuman, Assay Type: Sister-chromatid exchange (SCE) in vitro, Assay Code: SC2+D, Dose Response: With dose response, Evaluation Type: Evaluation A (Pre-1980)) was “active; positive” and the mutagenic call (Species/Cell Type: Nonhuman, Assay Type: Sister-chromatid exchange (SCE) in vivo, Assay Code: SC3+, Evaluation Type: Evaluation B (Post-1980)) was “active; positive”. For the same molecule, the mutagenic call [11] was “active; positive”, the mutagenic call (Species/Cell Type: Salmonella typhimurium, Assay Type: Forward and reverse gene mutation, host-mediated assay, Assay Code: HMA+, Evaluation Type: Evaluation A (Pre-1980)) was “active; positive” and the mutagenic call (Species/Cell Type: Syrian hamster embryo (SA7/SHE) cells, Assay Type: Cell transformation, viral enhanced, Assay Code: CT7+, Evaluation Type: Evaluation A (Pre-1980)) was “active; positive”. The mutagenic call (Species/Cell Type: Syrian hamster embryo (SHE) cells, Assay Type: Cell transformation, clonal assay, Assay Code: CTC+, Evaluation Type: Evaluation A (Pre-1980)) was “active; positive”.
With `CC(=O)Nc1nc(-c2cc([N+](=O)[O-])c[nH]2)cs1` the mutagenic call [3] was “no conclusion”.
In the case of `Cc1ccc2ccc3c(C)c4ccccc4c4ccc1c2c34`, the mutagenic call (Species/Cell Type: Drosophila melanogaster, Assay Type: Sex-linked recessive lethal gene mutation, Assay Code: SRLT, Evaluation Type: Evaluation A (Pre-1980)) was “no conclusion”.
For `COc1ccc2c3c1O[C@H]1[C@@H](O)C=C[C@H]4[C@@H](C2)N(C)CC[C@@]341`, the mutagenic call (Species/Cell Type: Mammalian polychromatic erythrocytes, Assay Type: Micronucleus test, chromosome aberrations, Assay Code: MNTT, Evaluation Type: Evaluation A (Pre-1980)) was “no conclusion” and the mutagenic call [12] was “inactive; negative”.
With `CCCCN(N=O)C(=O)OCC` the call [6] was “active; positive” and the mutagenic call (Species/Cell Type: Nonhuman, Assay Type: Sister-chromatid exchange (SCE) in vitro, Assay Code: SC2+, Evaluation Type: Evaluation A (Pre-1980)) was “active; positive”.
`Nc1ccc(N=Nc2ccc(-c3ccc(N=Nc4c(S(=O)(=O)O)cc5c(c4N)C(=O)/C(=N/Nc4ccccc4)C(S(=O)(=O)O)=C5)cc3)cc2)c(N)c1` was tested, and the mutagenic call [9] was “inactive; negative” and the call [6] was “active; positive”.
`Nc1ccc(S(N)(=O)=O)cc1` was tested, and the mutagenic call (Species/Cell Type: Aspergillus nidulans, Assay Type: Aneuploidy, chromosome aberrations, Assay Code: ASN-, Evaluation Type: Evaluation A (Pre-1980)) was “inactive; negative”, the mutagenic call (Species/Cell Type: Aspergillus nidulans, Assay Type: Mitotic recombination, Assay Code: ASG+, Evaluation Type: Evaluation A (Pre-1980)) was “active; positive” and the mutagenic call (Species/Cell Type: Neurospora crassa, Assay Type: Aneuploidy, chromosome aberrations, Assay Code: NEN-, Evaluation Type: Evaluation A (Pre-1980)) was “inactive; negative”. For the same molecule, the call [8] was “no conclusion”.
`Cc1cccc2c1cc(C)c1c3ccccc3ccc21` was tested, and the mutagenic call [13] was “active; positive”.
`COc1c(Cl)ccc2oc3cc4c(c(OC)c3c(=O)c12)[C@@H]1C=CO[C@@H]1O4` was tested, and the mutagenic call [13] was “active; positive”.
